One experiment relates to FDCPmix cells. As to the kind of experiment: FDCPmix cell proliferation in the presence of IL-3 (MTT assay). It is filed as cell-based. How it is done: The FDCPmix cell line was used as a suitable in vitro model for predicting the effects of hematopoietic factors on pluripotential stem cells. These cells can be maintained in an undifferentiated state in the presence of IL-3 or undergo multi-lineage development in the presence of specific hematopoietic growth factors.
This level of proliferation (100%) served as the control value. Inhibition of proliferation by test compounds was represented as a percent of control.
FDCPmix cells were plated at a density of 5×10^4 cells per well in 96-well plates (5×10^5/ml) using IMDM medium plus 10% fetal bovine serum. […] Test compounds were added at a decreasing concentrations ranging from 10 micrograms/ml down to 1 nanogram/ml. The test compounds included: 3′,5′-O—N^2-tripalmitoyl-2′-deoxyguanosine, 3′,5′-di-O-palmitoyl-2′-deoxy-guanosine, 3′,5′-O—N^2-trioctanoyl-2′-deoxyguanosine, 3′,5′-di-O-octanoyl-2′-deoxyguanosine, and 3′,5′-o-N^2-trioleyl-2′-deoxy-guanosine.
(In general: Formazan colour is commonly taken as a measure of viable cells.)

The next experiment deals with Balb/C female mice. As to the kind of experiment: Hematopoietic recovery after cyclophosphamide in mice (spleen weight, blood cell counts). The format is in vivo, mouse. The conditions noted are these: for recovery of blood cell counts: Ex 58: mice treated with cyclophosphamide, other nonionic surfactants; for total neutrophil counts: 2 μmoles/mouse.
The mark [1] stands for this setting: Dose 10 μg, 48 hours, IL-3 25 units/ml.
Setting [2] is: Table 8 (Ex 63): 7 days after CP.
The mark [3] stands for this setting: Ex 51: day 5 after CP, 2 μmoles/mouse i.p. daily, vs Tween-80.

Take `CCCCCCCC(=O)Nc1nc2c(ncn2[C@H]2C[C@H](OC(=O)CCCCCCC)[C@@H](COC(=O)CCCCCCC)O2)c(=O)[nH]1` [TriOctdG, 3′,5′-O—N^2-trioctanoyl-2′-deoxyguanosine]: the “Cell proliferation (% of Control)” value with FDCPmix cells (Dose 10 ng) was 87 ± 4 % of Control; with FDCPmix cells (Dose 39 ng) it was 85 ± 2 % of Control; in the experiment on FDCPmix cells (Dose 156 ng), 89 ± 6 % of Control; in the experiment with FDCPmix cells (Dose 625 ng) it was 86 ± 2 % of Control; with FDCPmix cells (Dose 2.5 μg) it was 96 ± .1 % of Control; in the experiment on FDCPmix cells (setting [1]), 107 ± 1 % of Control.
Consider Tween 20, for which the “recovery of blood cell counts” value in the experiment on Balb/C female mice is reported as “enhanced the recovery”.
Take `CCCCCCCC(=O)OC[C@H]1O[C@@H](n2cnc3c(=O)[nH]c(N)nc32)C[C@@H]1OC(=O)CCCCCCC` [DiOctdG, 3′,5′-di-O-octanoyl-2′-deoxyguanosine]: the “Cell proliferation (% of Control)” value in the experiment on FDCPmix cells (Dose 10 ng) is recorded as 84 ± 2 % of Control; in the experiment with FDCPmix cells (Dose 39 ng), 86 ± 1 % of Control; in the experiment on FDCPmix cells (Dose 156 ng), 84 ± 6 % of Control; in the experiment on FDCPmix cells (Dose 625 ng), 93 ± 1 % of Control; in the experiment with FDCPmix cells (Dose 2.5 μg), 78 ± 2 % of Control; in the experiment on FDCPmix cells (setting [1]), 100 ± .3 % of Control.
Consider `CCCCCCCC/C=C\CCCCCCCC(=O)Nc1nc2c(ncn2[C@H]2C[C@H](OC(=O)CCCCCCC/C=C\CCCCCCCC)[C@@H](COC(=O)CCCCCCC/C=C\CCCCCCCC)O2)c(=O)[nH]1` [TriOdG, 3′,5′-O-N^2-trioleyl-2′-deoxyguanosine], for which the “Cell proliferation (% of Control)” value with FDCPmix cells (Dose 10 ng) is listed as 92 ± 5 % of Control; in the experiment on FDCPmix cells (Dose 39 ng), 91 ± 5 % of Control; in the experiment on FDCPmix cells (Dose 156 ng) it was 92 ± 5 % of Control; in the experiment with FDCPmix cells (Dose 625 ng), 98 ± 6 % of Control; in the experiment on FDCPmix cells (Dose 2.5 μg), 80 ± 2 % of Control; with FDCPmix cells (setting [1]), 110 ± 3 % of Control. Also, in the experiment on Balb/C female mice (Ex 63: day 7 after CP, molar equivalent of 25 mg/kg TriPdG), the lymphocyte counts entry was “increased”. Besides, the Platelets with Balb/C female mice (setting [2]) is recorded as 741 ± 54 K/μl.
As for `CCCCCCCCCCCCCCCCCC(=O)Nc1nc2c(ncn2[C@H]2C[C@H](OC(=O)CCCCCCCCCCCCCCCCC)[C@@H](COC(=O)CCCCCCCCCCCCCCCCC)O2)c(=O)[nH]1` [TriSdG, 3′,5′-O-N^2-tristearyl-2′-deoxyguanosine], in the experiment with Balb/C female mice (setting [2]), the Neutrophils is listed as 5.4 ± .5 K/μl and the WBC is 7.6 ± .4 K/μl. Moreover, the Spleen with Balb/C female mice (Table 8 (Ex 63): 7 days after CP, TriPdG 25 mg/kg, others molar equivalent, daily 5 days) amounted to 85 ± 9 mg.
Take `CCCCCCCCCCCCCCCC(=O)OC[C@H]1O[C@@H](n2c(N)nc3c(=O)[nH]c(N)nc32)[C@H](O)[C@@H]1O` [palmitoyl-8-aminoguanosine]: the spleen weight entry in the experiment with Balb/C female mice (Ex 59: days 5 and 7 after CP, 25 mg/kg/day) is on record as “significantly elevated”. Besides, the Neutrophils result in the experiment on Balb/C female mice (Ex 59: days 5 and 7 after CP, 25 mg/kg/day in 0.2% Tween 80 i.p.) is “significantly elevated”.
Consider `CCCCCCCCCCCCCCCC(=O)OC[C@H]1O[C@@H](n2cnc3c(=O)[nH]cnc32)[C@H](O)[C@@H]1O` [Palmitoylinosine], for which the “Hematopoietic Recovery after cyclophosphamide” value in the experiment on Balb/C female mice (Ex 49 heading, 2.5 μmoles/mouse) is on record as “Improves”.
Consider Triton X-100, for which, in the experiment on Balb/C female mice, the “recovery of blood cell counts” value is listed as “enhanced the recovery”.
For `CCCCCCCCCCCCCCCC(=O)OC[C@H]1O[C@@H](n2cnc3c(=O)[nH]c(NC(=O)C(C)C)nc32)C[C@@H]1O` [NibuPdG, N^2-isobutyryl-5′-O-palmitoyl-2′-deoxyguanosine], the total neutrophil counts entry in the experiment with Balb/C female mice (Ex 51: day 5 after CP) is recorded as “significantly elevated”. In addition, the spleen weight entry in the experiment on Balb/C female mice (setting [3]) is reported as “significantly elevated”.
For `CCCCCCCCCCCCCCCC(=O)O[C@H]1C[C@H](n2cnc3c(=O)[nH]c(N)nc32)O[C@@H]1CO` [3′-O-palmitoyldeoxyguanosine, 3′-O-Palmitoyl-2′-Deoxyguanosine], in the experiment with Balb/C female mice (Ex 51: day 5 after CP), the total neutrophil counts result was “significantly elevated”. For the same compound, the spleen weight result in the experiment on Balb/C female mice (setting [3]) is given as “significantly elevated”.
Regarding Tween 40, the “recovery of blood cell counts” value in the experiment with Balb/C female mice was “enhanced the recovery”.
Still for that read-out and setting: the result for “octylphenol-ethylene oxide condensate [Nonidet P-40]” reads “enhanced the recovery”; that for “polyoxyethylene-10-oleyl ether [Brij 96]”, “enhanced the recovery”.

Source of the values: patent US7307166B1, “Oxpurine nucleosides and their congeners, and acyl, derivatives thereof, for improvement of hematopoiesis” (Wellstat Therapeutics Corporation, priority 1987, dated 2007).
